Laboratory results: patent US5602153A, “Method of using 1-arylheteroarylalkyl substituted-1H-1,2,4-triazole compounds for treatment of a giaucoma disorder” (G.D. Searle & Co., priority 1993, dated 1997)
Read-outs that look alike come from different tables or passages of the source.

Experiments:
rabbit aortic rings = molecular target: T1, rabbit aortic rings (Oryctolagus cuniculus, UniProt P34976); experiment: Assay B: In Vitro Vascular Smooth Muscle-Response for AII (antagonist activity in rabbit aortic rings); format: cell-based, rabbit (male New Zealand white); conditions: antagonist 10^-5 M for 5 min, AII challenge
T1 construct: The thoracic aorta was removed, cleaned of adherent fat and connective tissue; from tissue; host or cells: thoracic aorta rings, endothelium removed, male New Zealand white rabbit
T1 sequence (P34976 1-359): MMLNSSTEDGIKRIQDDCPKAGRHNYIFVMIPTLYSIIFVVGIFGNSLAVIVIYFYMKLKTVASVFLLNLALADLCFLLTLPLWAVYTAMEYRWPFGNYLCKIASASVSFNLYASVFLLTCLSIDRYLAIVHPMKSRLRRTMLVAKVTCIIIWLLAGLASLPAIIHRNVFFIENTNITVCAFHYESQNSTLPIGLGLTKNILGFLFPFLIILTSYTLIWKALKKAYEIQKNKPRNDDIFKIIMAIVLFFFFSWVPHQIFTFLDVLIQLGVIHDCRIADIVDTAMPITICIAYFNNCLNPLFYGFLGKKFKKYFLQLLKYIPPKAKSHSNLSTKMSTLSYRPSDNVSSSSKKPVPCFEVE
Method: Assay B: In Vitro Vascular Smooth Muscle-Response for AII The compounds of the invention were tested for antagonist activity in rabbit aortic rings. Male New Zealand white rabbits (2-2.5 kg) were sacrificed using an overdose of pentobarbital and exsanguinated via the carotid arteries. The thoracic aorta was removed, cleaned of adherent fat and connective tissue and then cut into 3-mm ring segments. The endothelium was removed from the rings by gently sliding a rolled-up piece of filter paper into the vessel lumen. The rings were then mounted in a water-jacketed tissue bath, maintained at 37° C., between moveable and fixed ends of a stainless steel wire with the moveable end attached to an FT03 Grass transducer coupled to a Model 7D Grass Polygraph for recording isometric force responses. The bath was filled with 20 ml of oxygenated (95% oxygen/5% carbon dioxide) Krebs solution of the following composition (mM): 130 NaCl, 15 NaHCO3, 15 KCl, 1.2 NaH2 PO4, 1.2 MgSO4, 2.5 CaCl2, and 11.4 glucose. The preparations were equilibrated for one hour before approximately one gram of passive tension was placed on the rings. Angiotensin II concentration-response curves were then recorded (3×10^-10 to 1×10^-5 M). Each concentration of AII was allowed to elicit its maximal contraction, and then AII was washed out repeatedly for 30 minutes before rechallenging with a higher concentration of AII. Aorta rings were exposed to the test antagonist at 10^-5 M for 5 minutes before challenging with AII. Adjacent segments of the same aorta ring were used for all concentration-response curves in the presence or absence of the test antagonist. The effectiveness of the test compound was expressed in terms of pA2 values and were calculated according to H.O. Schild [Br. J. Pharmacol. Chemother., 2, 189-206 (1947)]. The pA2 value is the concentration of the antagonist which increases the EC50 value for AII by a factor of two. Each test antagonist was evaluated in aorta rings from two rabbits.

pressor response to AII = experiment: Assay D: In Vivo Intragastric Pressor Assay Response for AII Antagonists of Examples #1 and #3; parameters: species or system rat (male Sprague-Dawley); conditions: 3 mg/kg gavage
Method: Assay D: In Vivo Intragastric Pressor Assay Response for AII Antagonists of Examples #1 and #3
Male Sprague-Dawley rats weighing 225-300 grams were anesthetized with methohexital (30 mg/kg, i.p.) and catheters were implanted into the femoral artery and vein. The catheters were tunneled subcutaneously to exit dorsally, posterior to the head and between the scapulae. The catheters were filled with heparin (1000 units/ml of saline). The rats were returned to their cage and allowed regular rat chow and water ad libitum. After full recovery from surgery (3-4 days), rats were placed in Lucite holders and the arterial line was connected to a pressure transducer. Arterial pressure was recorded on a Gould polygraph (mmHg). Angiotensin II was administered as a 30 ng/kg bolus via the venous catheter delivered in a 50 μl volume with a 0.2 ml saline flush. The pressor response in mm Hg was measured by the difference from pre-injection arterial pressure to the maximum pressure achieved. The AII injection was repeated every 10 minutes until three consecutive injections yielded responses within 4 mmHg of each other. These three responses were then averaged and represented the control response to AII. The test compound was suspended in 0.5% methylcellulose in water and was administered by gavage. The volume administered was 2 ml/kg body weight. The standard dose was 3 mg/kg. […] The pressor response to AII was measured at each time point. The rats were then returned to their cage for future testing. A minimum of 3 days was allowed between tests. Percent inhibition was calculated for each time point following gavage by the following formula: [(Control Response-Response at time point)/Control Response]×100.

## CCCCc1nc(CCCC)n(Cc2ccc(-c3ccccc3-c3nnn[nH]3)nc2)n1 [Example 3, 5-[2-[5-[(3,5-dibutyl-1H-1,2,4-triazol-1-yl)methyl]-2-pyridinyl]phenyl]-1H-tetrazole]
Rabbit aortic rings; first of two rabbits, read-out: pA2 (first value) (converted)
  Kb: 2.69 nM
Rabbit aortic rings; second of two rabbits, read-out: pA2 (converted)
  Kb: 5.75 nM
Pressor response to AII; Rat A, 0 min
  % Inhibition of Blood Pressure Elevation: 0%
Pressor response to AII; Rat A, 30 min
  % Inhibition of Blood Pressure Elevation: 64%
Pressor response to AII; Rat A, 45 min
  % Inhibition of Blood Pressure Elevation: 67%
Pressor response to AII; Rat A, 60 min
  % Inhibition of Blood Pressure Elevation: 52%
Pressor response to AII; Rat A, 75 min
  % Inhibition of Blood Pressure Elevation: 45%
Pressor response to AII; Rat A, 90 min
  % Inhibition of Blood Pressure Elevation: 60%
Pressor response to AII; Rat A, 120 min
  % Inhibition of Blood Pressure Elevation: 41%
Pressor response to AII; Rat A, 150 min
  % Inhibition of Blood Pressure Elevation: 38%
Pressor response to AII; Rat A, 180 min
  % Inhibition of Blood Pressure Elevation: 24%
Pressor response to AII; Rat B, 0 min
  % Inhibition of Blood Pressure Elevation: 0%
Pressor response to AII; Rat B, 30 min
  % Inhibition of Blood Pressure Elevation: 55%
Pressor response to AII; Rat B, 45 min
  % Inhibition of Blood Pressure Elevation: 71%
Pressor response to AII; Rat B, 60 min
  % Inhibition of Blood Pressure Elevation: 55%
Pressor response to AII; Rat B, 75 min
  % Inhibition of Blood Pressure Elevation: 53%
Pressor response to AII; Rat B, 90 min
  % Inhibition of Blood Pressure Elevation: 50%
Pressor response to AII; Rat B, 120 min
  % Inhibition of Blood Pressure Elevation: 50%
Pressor response to AII; Rat B, 150 min
  % Inhibition of Blood Pressure Elevation: 53%
Pressor response to AII; Rat B, 180 min
  % Inhibition of Blood Pressure Elevation: 40%
Pressor response to AII; Rat C, 0 min
  % Inhibition of Blood Pressure Elevation: 0%
Pressor response to AII; Rat C, 30 min
  % Inhibition of Blood Pressure Elevation: 15%
Pressor response to AII; Rat C, 45 min
  % Inhibition of Blood Pressure Elevation: 12%
Pressor response to AII; Rat C, 60 min
  % Inhibition of Blood Pressure Elevation: 46%
Pressor response to AII; Rat C, 75 min
  % Inhibition of Blood Pressure Elevation: 27%
Pressor response to AII; Rat C, 90 min
  % Inhibition of Blood Pressure Elevation: 46%
Pressor response to AII; Rat C, 120 min
  % Inhibition of Blood Pressure Elevation: 53%
Pressor response to AII; Rat C, 150 min
  % Inhibition of Blood Pressure Elevation: 50%
Pressor response to AII; Rat C, 180 min
  % Inhibition of Blood Pressure Elevation: 62%
Pressor response to AII; Rat D, 0 min
  % Inhibition of Blood Pressure Elevation: 0%
Pressor response to AII; Rat D, 30 min
  % Inhibition of Blood Pressure Elevation: 21%
Pressor response to AII; Rat D, 45 min
  % Inhibition of Blood Pressure Elevation: 14%
Pressor response to AII; Rat D, 60 min
  % Inhibition of Blood Pressure Elevation: 36%
Pressor response to AII; Rat D, 75 min
  % Inhibition of Blood Pressure Elevation: 36%
Pressor response to AII; Rat D, 90 min
  % Inhibition of Blood Pressure Elevation: 26%
Pressor response to AII; Rat D, 120 min
  % Inhibition of Blood Pressure Elevation: 34%
Pressor response to AII; Rat D, 150 min
  % Inhibition of Blood Pressure Elevation: 29%
Pressor response to AII; Rat D, 180 min
  % Inhibition of Blood Pressure Elevation: 3%
Pressor response to AII; Rat E, 0 min
  % Inhibition of Blood Pressure Elevation: 0%
Pressor response to AII; Rat E, 30 min
  % Inhibition of Blood Pressure Elevation: 52%
Pressor response to AII; Rat E, 45 min
  % Inhibition of Blood Pressure Elevation: 43%
Pressor response to AII; Rat E, 60 min
  % Inhibition of Blood Pressure Elevation: 38%
Pressor response to AII; Rat E, 75 min
  % Inhibition of Blood Pressure Elevation: 43%
Pressor response to AII; Rat E, 90 min
  % Inhibition of Blood Pressure Elevation: 29%
Pressor response to AII; Rat E, 120 min
  % Inhibition of Blood Pressure Elevation: 29%
Pressor response to AII; Rat E, 150 min
  % Inhibition of Blood Pressure Elevation: 16%
Pressor response to AII; Rat E, 180 min
  % Inhibition of Blood Pressure Elevation: 16%
Pressor response to AII; Rats A-E Mean ± SE, 0 min
  % Inhibition of Blood Pressure Elevation: 0%
Pressor response to AII; Rats A-E Mean ± SE, 30 min
  % Inhibition of Blood Pressure Elevation: 42 ± 10%
Pressor response to AII; Rats A-E Mean ± SE, 45 min
  % Inhibition of Blood Pressure Elevation: 41 ± 13%
Pressor response to AII; Rats A-E Mean ± SE, 60 min
  % Inhibition of Blood Pressure Elevation: 46 ± 4%
Pressor response to AII; Rats A-E Mean ± SE, 75 min
  % Inhibition of Blood Pressure Elevation: 41 ± 4%
Pressor response to AII; Rats A-E Mean ± SE, 90 min
  % Inhibition of Blood Pressure Elevation: 42 ± 6%
Pressor response to AII; Rats A-E Mean ± SE, 120 min
  % Inhibition of Blood Pressure Elevation: 41 ± 5%
Pressor response to AII; Rats A-E Mean ± SE, 150 min
  % Inhibition of Blood Pressure Elevation: 37 ± 7%
Pressor response to AII; Rats A-E Mean ± SE, 180 min
  % Inhibition of Blood Pressure Elevation: 29 ± 10%
